{
  "source": "ChEMBL document CHEMBL4152181",
  "about": "“Resolvins as proresolving inflammatory mediators in cardiovascular disease” (Eur J Med Chem, 2018)",
  "assay": "Half life in air at 10 to 20 ug by HPLC analysis",
  "type": "physicochemical",
  "data": [
    {"smiles": "CC[C@@H](O)/C=C/C=C\\C/C=C\\C/C=C\\C=C\\[C@@H](O)CCCC(=O)O", "values": [
      {"measurement": "half-life", "value": 1.5, "unit": "h"}
    ]},
    {"smiles": "CC[C@@H](O)/C=C/C=C\\C[C@@H]1C[C@@H]1C/C=C\\C=C\\[C@@H](O)CCCC(=O)O", "values": [
      {"measurement": "half-life", "value": 35, "unit": "h"}
    ]},
    {"smiles": "CC[C@@H](O)/C=C/C=C\\C[C@H]1C[C@H]1C/C=C\\C=C\\[C@@H](O)CCCC(=O)O", "values": [
      {"measurement": "half-life", "value": 35, "unit": "h"}
    ]}
  ]
}
